Paper PMC8923309, “Permeability evaluation of gemcitabine-CPP6 conjugates in Caco-2 cells” (ADMET & DMPK, 2020)
Numbered stars: 1 amine (or outer) side, 2 acyl side, 3 side chain; on linkers, the order of the positions; unused ones are H or OH. Ends that are not written are not given here. Peptide text beside a SMILES is read from it. * marks the point of attachment. X1 = O=c1nc(N*)ccn1[C@@H]1O[C@H](CO)[C@@H](O)C1(F)F; Suc = O=C(CCC(=O)[*:2])[*:1]

How the values were obtained:
Caco-2 monolayer [1] = experiment: Transport across Caco-2 monolayer (permeability assay); conditions: HPLC-UV; for sum of the CPP absorbed from the apical side and found in the basolateral chamber at the end of the experiment: 60 μM apical in HBSS pH 7.4, 37 °C, remainder retained in cells or degraded; for percentage of amount applied apically recovered in the basolateral compartment at 120 min / sum of the CPP absorbed from the apical side and found in the basolateral chamber at the end of the experiment: 120 min
Method: (§1) A monolayer of Caco-2 cells was established in a 12-well plate [11]. […] Firstly, filters were pre-wet with 0.1 mL of culture medium for 2 minutes. Cells were seeded in the apical side (0.5 mL of cells per well, cell density of 4.0 x 10^5 cells/mL). The basolateral compartment was filled with 1.5 mL of culture medium and plates were incubated for 6 h (5 % CO2 humidified atmosphere at 37 °C). Then, to remove non-adherent cells and reduce the risk of multilayer formation, the medium in the apical side was removed and replaced with fresh medium. Cells were maintained for 29 days, replacing the culture medium from both compartments every other day.
(§2) All the solutions used were pre-warmed to 37 °C. Culture medium was replaced with fresh medium 24 h prior the beginning of the experiment. Next, this culture medium was removed first from the basolateral and then from the apical compartment. The apical compartment was carefully washed and then filled with 0.5 mL of Hank’s Balanced Salt Solution (HBSS, pH 7.4) and the basolateral compartment was also filled with 1.5 mL of HBSS. […] All tested compounds were prepared in HBBS (60 μM) and added to the apical compartment. Throughout this assay, the final volume was 0.4 mL in the apical compartment and 1.2 mL in the basolateral chamber. At t = 0 min, 0.45 mL of the donor solution was added to the apical compartment and a sample (0.05 mL) was immediately taken. The plate was incubated (lid-covered) at 37 °C under gentle shaking (190 rpm). Every 30 min for the next 2 h, a sample of 0.6 mL was taken from the basolateral compartment and replaced with the same volume of HBSS.
(§3) The concentrations of the evaluated compound in the basolateral and apical compartments were determined by high-performance liquid chromatography (HPLC) (VWR International LCC, LaChrom Ultra, Pennsylvania, USA). Elution was performed with a variable gradient of acetonitrile (ACN) in water containing 0.05 % trifluoroacetic acid (TFA), at a 0.7 mL/min flow and detection at variable wavelength (243 nm for gemcitabine and 220 nm for peptides and conjugates).

Caco-2 monolayer [2] = test system: Caco-2 monolayer
Method: as §1, §2, §3

Caco-2 cells = experiment: MTT cytotoxicity assay (cell growth inhibition); assay type: cell-based; conditions: Homo sapiens, 72 h incubation, 0.1-100000 μM, absorbance 570 nm, triplicate
Method: Human colon adenocarcinoma cell line Caco-2 (passage 25-47, kindly provided by the Department of Biomedicine of the Faculty of Medicine of University of Porto, and previously acquired via ATCC) was routinely maintained in Dulbecco’s Modified Eagle’s Medium (DMEM) supplemented with 10 % fetal bovine serum (FBS), L-glutamine and antibiotics penicillin and streptomycin. Cells were cultured at 37 °C in a 5 % CO2 humidified atmosphere. Culturing medium was replaced every 2-3 days and cell subculture was conducted once a week by trypsinization (0.25 % trypsin-EDTA wt/vol, 5, min, 37, °C).
The cell growth inhibitory activity of gemcitabine in Caco-2 cells was assessed with the MTT assay. Briefly, a growth curve was traced to determine the best cell density for the assay. […] Finally, MTT solution was removed, DMSO (100 μL per well) was added to solubilize the formazan crystals formed by viable cells and absorbance was measured at 570 nm in an automated microplate reader (Sinergy HT, Biotek Instruments Inc, Vermont, USA). […]
Gemcitabine cytotoxicity results were compared with the untreated control (mean of values was set to 100 %) and expressed as mean ± SEM. The statistical significance between different gemcitabine concentrations was analyzed in GraphPad Prism 7 (San Diego, EUA) using one-way ANOVA (p<0.05).

[3] = design: method as in PMID 16807468; conditions: administered intravenously; rapid deamination by cytidine deaminase in serum; cited from earlier work
From the text: Gemcitabine (Gem, dFdC or 2′,2′-difluoro-2′-deoxycytidine, Scheme 1) is a cytotoxic nucleoside analogue used as a chemotherapeutic drug.

[4] = Caco-2 monolayer (29 days, Transwell COL PTFE 0.4 μm), apical to basolateral, 60 μM in HBSS pH 7.4, 37 °C, 190 rpm

| Compound | percentage of amount applied apically recovered in the basolateral compartment at 120 min (Caco-2 monolayer [1]; [4]) | sum of the CPP absorbed from the apical side and found in the basolateral chamber at the end of the experiment (Caco-2 monolayer [1]; Caco-2 monolayer) [%] | further results |
| --- | --- | --- | --- |
| CSCC[C@H](NC(=O)[C@@H](NC(=O)[C@@H]1CCCN1C(=O)[C@H](CC(C)C)NC(=O)[C@H](CCCCN)NC(=O)[C@H](Cc1c[nH]c2ccccc12)NC(=O)CCC(=O)Nc1ccn([C@@H]2O[C@H](CO)[C@@H](O)C2(F)F)c(=O)n1)C(C)C)C(N)=O [Gem-CPP6-1] ({X1-Suc}-WKLPVM-NH2) | 9% |  |  |
| CSCC[C@H](NC(=O)[C@@H](NC(=O)[C@@H]1CCCN1C(=O)[C@H](CC(C)C)NC(=O)[C@H](CCCCN)NC(=O)CCC(=O)Nc1ccn([C@@H]2O[C@H](CO)[C@@H](O)C2(F)F)c(=O)n1)C(C)C)C(=O)N[C@@H](Cc1c[nH]c2ccccc12)C(N)=O [Gem-CPP6-2] ({X1-Suc}-KLPVMW-NH2) | Approximately 31% |  | extent of permeation relative to Gem-CPP6-1 and Gem-CPP6-3 conjugates (Caco-2 monolayer [2]): about 3 fold |
| Nc1ccn([C@@H]2O[C@H](CO)[C@@H](O)C2(F)F)c(=O)n1 [Gemcitabine, 2′,2′-difluoro-2′-deoxycytidine] | 18% |  | IC50 (Caco-2 cells): 52.4 µM; half-life [3]: 8 to 17 min; percentage found in the basolateral side after 30 minutes (Caco-2 monolayer [1]; Caco-2 monolayer (29 days, Transwell COL PTFE 0.4 μm), apical to basolateral, 60 μM in HBSS pH 7.4, 37 °C, 190 rpm, 30 min): 3%; additional percentage of drug crossing the membrane from 90 min (plateau) until 120 min (Caco-2 monolayer [1]; Caco-2 monolayer, apical to basolateral, 60 μM in HBSS pH 7.4, 37 °C, between 90 and 120 min): 1% |

More lines, main results first:

| percentage of amount applied apically recovered in the basolateral compartment at 120 min (Caco-2 monolayer [1]; [4]) | sum of the CPP absorbed from the apical side and found in the basolateral chamber at the end of the experiment (Caco-2 monolayer [1]; Caco-2 monolayer) [%] | Compound | further results |
| --- | --- | --- | --- |
| 40% | 84 | KLPVMW-NH2 [CPP6-2] |  |
| 33% | 50 | WKLPVM-NH2 [CPP6-1] |  |
| 37% | 75 | WVPTLK [CPP6-3] |  |
